Results on 1 compound are retold here after patent US20160257651A1, “NOVEL COMPOUND WITH ANTIBACTERIAL ACTIVITY” (priority 2013, published 2016).

The subject of test [1] is S. aureus FDA209P (ATCC 6538P). Put plainly: microbe, parasite or virus in culture. Format: cell-based, Staphylococcus aureus. The settings on record: Staphylococcus aureus, ATCC 6538P / FDA209P / MSSA, quinolone-susceptible MSSA, ParC 80S, GyrA 84S, read-out: MIC. On the procedure:
(§1) Then, the cell suspension was diluted 500 times with CAMHB mentioned above.

The test system of test [2] is S. aureus Mu50. As to the kind of experiment: microbe, parasite or virus in culture. The settings on record: for MIC: S. aureus Mu50, quinolone-resistant MRSA, ParC S80F, GyrA S84L. The test is classed as cell-based, Staphylococcus aureus. The procedure:
as §1

Test [3] concerns S. aureus Mu50 NR1-1. As to the kind of experiment: microbe, parasite or virus in culture. The test is classed as cell-based. The conditions noted are these: Staphylococcus aureus, MU50NR11. On the procedure: as §1
Test [4] relates to S. aureus MR5867 three-step mutant. As to the kind of experiment: MIC against stepwise QRDR mutants. Format: cell-based. The settings on record: Staphylococcus aureus.
Description: (§2) In order to further verify that the action site of the compound J-131CP is gyrA, there were examined antibacterial activities against the MRSA, S. aureus MR5867, and stepwise-mutated strains (one-step mutant strain to three-step mutant strain) of S. aureus MR5867 in which mutation was introduced into QRDR, as well as the MSSA, S. aureus MS5952, and stepwise-mutated strains (one-step mutant strain to three-step mutant strain) of S. aureus MS5952 in which mutation was introduced into QRDR (those strains mentioned above are described in Antimicrob. Agents Chemother., 42(8), pp. 1917-1922, 1998) by the following methods. The strains used for this test example are available from the inventors of the present invention.
(§3) The compound J-131CP and quinolones were prepared in the same manner as that of Test Example 1-1.
as §1
(§4) CAMHB containing each of the compound J-131CP and quinolones at each concentration was added to each well of a 96-well plate in a volume of 50 μL/well, the aforementioned cell suspension diluted 500 times was added to the well in a volume of 50 μL/well, and stationary culture was carried out overnight at 37° C. in the same manner as that of Test Example 1-1.

For test [5], the system named is S. aureus MR5867 two-step mutant. Put plainly: MIC against stepwise QRDR mutants. The test is classed as cell-based. The settings on record: Staphylococcus aureus.
Description: as §2, §3, §1, §4

The subject of test [6] is S. aureus MR5867. Put plainly: MIC against stepwise QRDR mutants. Format: cell-based. The conditions noted are these: Staphylococcus aureus.
Description: as §2, §3, §1, §4

Test [7] relates to S. aureus MS5952 three-step mutant. Put plainly: MIC against stepwise QRDR mutants. Format: cell-based. The conditions noted are these: Staphylococcus aureus.
Description: as §2, §3, §1, §4

Test [8] concerns S. aureus MS5952 two-step mutant. As to the kind of experiment: MIC against stepwise QRDR mutants. The conditions noted are these: Staphylococcus aureus. Format: cell-based.
Description: as §2, §3, §1, §4

The test system of test [9] is S. aureus MS5952. Put plainly: MIC against stepwise QRDR mutants. The conditions noted are these: Staphylococcus aureus. The test is classed as cell-based.
Description: as §2, §3, §1, §4

Test [10] concerns S. aureus MR5867 one-step mutant. As to the kind of experiment: MIC against stepwise QRDR mutants. The test is classed as cell-based. The conditions noted are these: Staphylococcus aureus. On the procedure:
(§5) The strains used for this test example are available from the inventors of the present invention.
as §1

Test [11] relates to S. aureus MS5952 one-step mutant. As to the kind of experiment: MIC against stepwise QRDR mutants. The test is classed as cell-based. The conditions noted are these: Staphylococcus aureus. On the procedure: as §5, §1
Test [12] concerns E. faecium NCTC12202. As to the kind of experiment: MIC against Enterococcus bacteria. The test is classed as cell-based, Enterococcus faecium. The conditions noted are these: Enterococcus faecium, NCTC 12202 / VRE; E. faecium NCTC12202, VRE, quinolone-susceptible; read-out: MIC. The procedure: (§6) Antibacterial activities of the compound J-131CP against Enterococcus bacteria (Enterococcus faecium and Enterococcus faecalis) were examined by the following methods.
as §3
(§7) Cell suspensions were prepared in the same manner as that of Test Example 1-1 described in the section of measurement of MIC in Test Example 1-1, except that the Enterococcus bacterium strains mentioned in Table 8 were used instead of Staphylococcus aureus, and MICs of the compound J-131CP and quinolones as control were determined for the strains in the same manner as that of Test Example 1-1 described in the section of measurement of MIC in Test Example 1-1. In Table 8, the amino acid substitution mutations in QRDR of the strains are underlined.

In test [13] the test system is E. faecium RPR2. As to the kind of experiment: MIC against Enterococcus bacteria. The settings on record: Enterococcus faecium, RPR2. The test is classed as cell-based, Enterococcus faecium. The procedure: as §6, §3, §7
For test [14], the system named is E. faecalis 36-15747. As to the kind of experiment: MIC against Enterococcus bacteria. Format: cell-based. The conditions noted are these: 3615747, ParC 80Ile. On the procedure:
as §6, §3, §7

Test [15] has as its system E. faecalis NCTC12201. As to the kind of experiment: MIC against Enterococcus bacteria. Format: cell-based. The settings on record: Enterococcus faecalis, NCTC 12201 / VRE, quinolone-susceptible, read-out: MIC. The procedure: as §6, §3, §7
The test system of test [16] is E. faecalis NCTC12203. As to the kind of experiment: MIC against Enterococcus bacteria. Format: cell-based. The settings on record: NCTC 12203 / VRE, E. faecalis NCTC12203, VRE, read-out: MIC. On the procedure:
as §6, §3, §7

Test [17] concerns E. faecium NCTC12204. Put plainly: MIC against Enterococcus bacteria. The test is classed as cell-based. The settings on record: NCTC 12204 / VRE, E. faecium NCTC12204, VRE, read-out: MIC. On the procedure: as §6, §3, §7
The test system of test [18] is E. faecium RPR10. Put plainly: MIC against Enterococcus bacteria. The test is classed as cell-based. The conditions noted are these: E. faecium RPR10, read-out: MIC. On the procedure:
as §6, §3, §7

For test [19], the system named is S. pneumoniae BCLSP37. Put plainly: MIC against pneumococcus, CAMHB with 5 mass % LHB. The conditions noted are these: Streptococcus pneumoniae, BCLSP37, S. pneumoniae BCLSP37, PSSP, quinolone-resistant; ParC 79Phe, GyrA 85Lys; read-out: MIC. The test is classed as cell-based, Streptococcus pneumoniae.
Test [20] relates to S. pneumoniae KBSP11. As to the kind of experiment: MIC against pneumococcus, CAMHB with 5 mass % LHB. Format: cell-based, Streptococcus pneumoniae. The conditions noted are these: Streptococcus pneumoniae; S. pneumoniae KBSP11, PRSP, quinolone-susceptible; read-out: MIC.

≈ marks a conversion by molar mass, not a printed value.

Turning to `C[C@@H]1CN(c2c(F)c(N)c3c(=O)c(C(=O)O)cn(C4CC4)c3c2F)C[C@H](C)N1` [SPX, sparfloxacin], the MIC in test [1] is ≤ 0.06 µg/mL; in test [2], 16 mg/L (≈ 40.8 µM); in test [2] (Staphylococcus aureus, MRSA), 8 to 128 mg/L (≈ 20.4 to 326 µM); in test [3] it was 0.25 µg/mL (≈ 0.637 µM); in test [4], 16 µg/mL (≈ 40.8 µM); in [5], 8 µg/mL (≈ 20.4 µM). The MIC in test [6] is < 0.06 µg/mL; in [7] it was 128 µg/mL (≈ 326 µM); in test [8], 16 µg/mL (≈ 40.8 µM); in test [9], < 0.06 µg/mL; in [10], < 0.06 µg/mL; in [11], 8 µg/mL (≈ 20.4 µM). The MIC in test [12] was 0.25 µg/mL (≈ 0.637 µM); in test [13], > 128 µg/mL; in [14] it was 0.5 µg/mL (≈ 1.27 µM); in [15], 0.5 µg/mL (≈ 1.27 µM); in [16], 1 µg/mL (≈ 2.55 µM); in test [17], 1 µg/mL (≈ 2.55 µM). Moreover, the figures for the MIC in test [18], in test [19] and in test [20] were 0.13 µg/mL (≈ 0.331 µM), > 32 µg/mL and 0.25 µg/mL (≈ 0.637 µM), respectively. Also, in test [2] (MIC for S. aureus Mu50 / MIC for S. aureus FDA209P), the “MIC ratio (Mu50 MIC/FDA209P MIC)” value is reported as “≧256”.
